Source: ChEMBL document CHEMBL1141837, “New steroidal alkaloids from the roots of buxus sempervirens” (1999)
Calls of active or inactive are those of the source. The rule behind the calls is not given here.

Columns and labels:
Assay type in all cases: functional
Lemna minor [1] = test: Phytotoxicity against Lemna minor L. at 50 ppm
Lemna minor [2] = test: Phytotoxicity against Lemna minor L. at 5 ppm
Lemna minor [3] = test: Phytotoxicity against Lemna minor L. at 500 ppm

Compound | Activity (Lemna minor [1]) | Activity (Lemna minor [2]) | Activity (Lemna minor [3])
C[C@@H]([C@H]1CC[C@@]2(C)[C@@H]3CC[C@@H]4C(=CC3=CC[C@]12C)CC[C@H](N)C4(C)C)N(C)C | inactive | inactive | inactive
CC(=O)O[C@H]1C[C@@H]2[C@H](CC[C@]3(C)[C@@H]([C@H](C)N(C)C)CC[C@@]23C)CC2=C[C@@H](O)[C@H](NC(=O)c3ccccc3)C(C)(C)[C@@H]21 | inactive | inactive | inactive
CC(=O)O[C@H]1C[C@@H]2[C@@]3(CC4=C[C@@H](O)[C@H](NC(=O)c5ccccc5)C(C)(C)[C@@H]41)O[C@H]3C[C@]1(C)[C@@H]([C@H](C)N(C)C)CC[C@@]21C | 57% | 57% | 86%
CC(=O)O[C@H]1C[C@@H]2[C@@]3(CC4=C[C@@H](OC(C)=O)[C@H](NC(=O)c5ccccc5)C(C)(C)[C@@H]41)O[C@H]3C[C@]1(C)[C@@H]([C@H](C)N(C)C)CC[C@@]21C | 71% | 57% | 86%
CN[C@H]1CC[C@]23C[C@]24CC[C@]2(C)C(=O)CC[C@@]2(C)[C@@H]4CC[C@H]3C1(C)C | inactive | inactive | inactive
